Biological target: T1, PDE4B (human recombinant) (Homo sapiens, UniProt Q07343)
T1 construct: made in house; host or cells: Saccharomyces cerevisiae strain GL62 (PDE-deficient yeast)
Test: PDE4B inhibition, IMAP Fluorescence Polarisation (FP) assay
Format: biochemical
Conditions: mean of n = 3 readings; accurate to about ±0.5 log unit; read-out: PDE4B pIC50 (± about 0.5) (FP assay), Mean pIC50 value (converted)
Description: Human recombinant PDE4B, in particular the 2B splice variant thereof (HSPDE4B2B), is disclosed in WO 94/20079 and also M. M. McLaughlin et al., “A low Km, rolipram-sensitive, cAMP-specific phosphodiesterase from human brain: cloning and expression of cDNA, biochemical characterisation of recombinant protein, and tissue distribution of mRNA”, J. Biol. Chem., 1993, 268, 6470-6476. For example, in Example 1 of WO 94/20079, human recombinant PDE4B is described as being expressed in the PDE-deficient yeast Saccharomyces cerevisiae strain GL62, e.g. after induction by addition of 150 uM CuSO4, and 100,000×g supernatant fractions of yeast cell lysates are described for use in the harvesting of PDE4B enzyme.
The ability of compounds to inhibit catalytic activity at PDE4B (human recombinant) or PDE4D (human recombinant) can optionally be determined by IMAP Fluorescence Polarisation (FP) assay (IMAP Explorer kit, available from Molecular Devices Corporation, Sunnydale, Calif., USA; Molecular Devices code: R8062) in 384-well format.
The IMAP FP assay is able to measure PDE activity in an homogenous, non-radioactive assay format. […] Binding of Fl-AMP product to the beads (coated with the immobilised trivalent cations) slows the rotation of the bound Fl-AMP and leads to an increase in the fluorescence polarisation ratio of parallel to perpendicular light. […]

T1 sequence (Q07343 1-564 isoform Q07343-2): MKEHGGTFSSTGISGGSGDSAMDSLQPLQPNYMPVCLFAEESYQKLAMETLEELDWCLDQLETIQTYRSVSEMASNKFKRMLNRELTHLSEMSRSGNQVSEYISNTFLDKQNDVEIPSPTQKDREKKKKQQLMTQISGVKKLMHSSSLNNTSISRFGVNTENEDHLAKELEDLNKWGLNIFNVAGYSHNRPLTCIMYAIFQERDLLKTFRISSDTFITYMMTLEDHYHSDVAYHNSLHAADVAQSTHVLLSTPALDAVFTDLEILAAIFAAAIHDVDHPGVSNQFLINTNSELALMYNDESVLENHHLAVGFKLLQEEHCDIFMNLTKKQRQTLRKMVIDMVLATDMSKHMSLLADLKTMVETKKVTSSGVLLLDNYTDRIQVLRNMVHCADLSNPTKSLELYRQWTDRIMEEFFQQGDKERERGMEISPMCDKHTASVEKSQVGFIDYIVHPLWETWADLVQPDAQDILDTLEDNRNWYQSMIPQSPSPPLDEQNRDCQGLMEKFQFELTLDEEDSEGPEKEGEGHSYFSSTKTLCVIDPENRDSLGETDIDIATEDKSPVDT

An IC50 of ~0.158 nM was found for CCc1nc2c(cnn2CC)c(NC2CCOCC2)c1CNC(=O)c1cc(C)no1 [Example 1, N-{[1,6-diethyl-4-(tetrahydro-2H-pyran-4-ylamino)-1H-pyrazolo[3,4-b]pyridin-5-yl]methyl}-3-methyl-5-isoxazolecarboxamide] in this work.

Source: patent US20080255186A1, “Pyrazolo[3,4-B]Pyridine Compound, and Its Use as a Pde4 Inhibitor” (priority 2005, published 2008)
